Reference: article PMC3673989, “Effect of Single Amino Acid Substitution Observed in Cancer on Pim-1 Kinase Thermodynamic Stability and Structure” (PLoS ONE, 2013)

biological target: Pim-1 variants; experiment: Caliper mobility shift kinase assay; assay type: biochemical, human; conditions: exception K00487 and K00207a for Y53H
Protocol: (§1) Phosphorylation reaction was monitored using a coupled-enzyme assay in which ADP production is coupled to NADH oxidation by pyruvate kinase and lactate dehydrogenase. […] In the Caliper mobility shift assays kinase reactions were analyzed by microfluidic capillary electrophoresis. The final assay buffer was 50 mM HEPES, pH 7.5, 1 mM DTT, 0.02% Tween 20, 0.02% BSA, 10 mM beta-glycerophosphate, 0.01 mM Na3VO4, 0.6% DMSO, 8 mM MgCl2, 2 µM peptide and 0.2 nM kinase. The reactions were started by addition of substrate mix consisting of ATP and peptide substrate to kinase and inhibitor solution. ATP concentrations were adjusted to the Kmvalues of the specific Pim enzyme. After incubation for 60 min at 30°C reactions were terminated with 100 mM HEPES pH 7.5, 5% DMSO, 0.1% coating reagent (Caliper Lifescience) 10 mM EDTA pH 8.0, 0.015% Brij35. Levels of substrate and product were quantified by measuring the laser-induced fluorescence intensities of fluorescein labels of the peptide.

IC50 for Pim-1 variants compared with wild type | Compound
closely similar | CCC(CO)Nc1ccc2ncc(-c3cccc(OC(F)(F)F)c3)n2n1 (centres unmarked) [K00487]

biological target: T1, Pim-1 wild type (Homo sapiens, UniProt P11309); experiment: not given; assay type: biochemical; conditions: ATP as substrate, wild type protein
T1 construct: hexahistidine tag (TEV-cleavable) (cleaved yes); made in house; host or cells: E. coli BL21(DE3)
Protocol: as §1

T1 sequence (P11309 whole entry): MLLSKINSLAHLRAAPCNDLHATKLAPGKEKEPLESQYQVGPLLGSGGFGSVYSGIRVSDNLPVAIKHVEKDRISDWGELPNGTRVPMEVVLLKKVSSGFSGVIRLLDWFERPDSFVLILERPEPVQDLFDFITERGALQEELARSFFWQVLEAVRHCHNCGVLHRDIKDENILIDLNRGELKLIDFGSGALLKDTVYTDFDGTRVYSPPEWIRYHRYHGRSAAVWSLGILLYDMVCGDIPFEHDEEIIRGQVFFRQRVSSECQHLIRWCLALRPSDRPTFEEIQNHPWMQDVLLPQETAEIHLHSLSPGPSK

Compound | Km [µM]
Nc1ncnc2c1ncn2[C@@H]1O[C@H](COP(=O)(O)OP(=O)(O)OP(=O)(O)O)[C@@H](O)[C@H]1O [ATP] | 205

biological target: T2, Pim-1 E124Q (Homo sapiens, UniProt P11309, E124Q); experiment: Inhibitor binding by temperature shift assay (SYPRO Orange); conditions: Pim-1 E124Q 2 µM, compound 10 µM
T2 construct: hexahistidine tag (TEV-cleavable) (cleaved yes); made in house; host or cells: E. coli BL21(DE3)
Protocol: (§2) Thermal melting experiments were carried out using an Mx3005p Real Time PCR machine (Stratagene). Proteins were buffered in 10 mM HEPES pH 7.5, 500 mM NaCl and assayed in a 96-well plate at a final concentration of 2 µM in 20 µl volume. Compounds were added at a final concentration of 10 µM. SYPRO Orange (Molecular Probes) was added as a fluorescence probe at a dilution of 1∶1000. […] Data was analysed as previously described.

T2 sequence (P11309 whole entry E124Q): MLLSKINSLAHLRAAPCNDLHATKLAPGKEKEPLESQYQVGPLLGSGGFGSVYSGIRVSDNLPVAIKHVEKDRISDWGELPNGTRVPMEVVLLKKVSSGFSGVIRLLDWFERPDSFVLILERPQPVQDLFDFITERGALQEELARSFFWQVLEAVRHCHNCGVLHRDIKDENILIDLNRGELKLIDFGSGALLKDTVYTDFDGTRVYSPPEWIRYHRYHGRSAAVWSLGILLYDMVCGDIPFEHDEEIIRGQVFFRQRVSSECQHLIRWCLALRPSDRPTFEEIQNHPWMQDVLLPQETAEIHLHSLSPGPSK

ΔTm [K] | Compound
7.6 | CCC(CO)Nc1ccc2ncc(-c3cccc(OC(F)(F)F)c3)n2n1 (centres unmarked) [K00487]
8.2 | CC(C)[C@@H](CO)Nc1ccc2ncc(-c3cccc(C(F)(F)F)c3)n2n1 [K00516]
8.5 | CC(C)[C@@H](CO)Nc1ccc2ncc(-c3cccc(OC(F)(F)F)c3)n2n1 [K00512]
4.3 | CC(=O)c1cccc(-c2cnc3ccc(N[C@H](CO)C(C)C)nn23)c1 [K00518]
6.1 | CC(C)[C@@H](CO)Nc1ccc2ncc(-c3cccc(Cl)c3)n2n1 [K00514]

Second part, the compound before the results:

Compound | ΔTm [K]
COCCNc1ccc2ncc(-c3cccc(Cl)c3)n2n1 [K00478] | 4.9
FC(F)(F)Oc1cccc(-c2cnc3ccc(NCC4CC4)nn23)c1 [K00520] | 5.0
Cn1c2c(c3ccc(Cl)c(Cl)c31)C(C#N)C1(CCOCC1)NC2=O (centres unmarked) [K01741a] | 3.3
CCN1CCC2(CC1)NC(=O)c1c(c3ccc(Cl)c(Cl)c3n1C)C2C#N (centres unmarked) [K01786a] | 7.2
Clc1ccc(-c2cnc3ccc(NC4CCOCC4)nn23)cc1 [K00499] | 5.6

biological target: T3, Pim-1 E142D (Homo sapiens, UniProt P11309, E142D); experiment: as above; conditions: Pim-1 E142D 2 µM, compound 10 µM
T3 construct: hexahistidine tag (TEV-cleavable) (cleaved yes); made in house; host or cells: E. coli BL21(DE3)
Protocol: as §2

T3 sequence (P11309 whole entry E142D): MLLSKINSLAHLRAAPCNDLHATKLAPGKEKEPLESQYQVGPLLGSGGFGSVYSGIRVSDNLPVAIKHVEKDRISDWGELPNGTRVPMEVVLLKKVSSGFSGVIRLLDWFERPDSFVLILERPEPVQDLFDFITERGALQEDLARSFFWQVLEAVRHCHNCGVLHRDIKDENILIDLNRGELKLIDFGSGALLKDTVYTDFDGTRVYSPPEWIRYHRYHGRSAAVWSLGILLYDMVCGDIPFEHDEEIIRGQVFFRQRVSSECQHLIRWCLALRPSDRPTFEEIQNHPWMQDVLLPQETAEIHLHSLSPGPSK

ΔTm [K] | Compound
8.1 | CCC(CO)Nc1ccc2ncc(-c3cccc(OC(F)(F)F)c3)n2n1 (centres unmarked) [K00487]
7.7 | CC(C)[C@@H](CO)Nc1ccc2ncc(-c3cccc(C(F)(F)F)c3)n2n1 [K00516]
8.8 | CC(C)[C@@H](CO)Nc1ccc2ncc(-c3cccc(OC(F)(F)F)c3)n2n1 [K00512]
5.3 | CC(=O)c1cccc(-c2cnc3ccc(N[C@H](CO)C(C)C)nn23)c1 [K00518]
6.2 | CC(C)[C@@H](CO)Nc1ccc2ncc(-c3cccc(Cl)c3)n2n1 [K00514]

Second part, the compound before the results:

Compound | ΔTm [K]
COCCNc1ccc2ncc(-c3cccc(Cl)c3)n2n1 [K00478] | 4.8
FC(F)(F)Oc1cccc(-c2cnc3ccc(NCC4CC4)nn23)c1 [K00520] | 6.4
Cn1c2c(c3ccc(Cl)c(Cl)c31)C(C#N)C1(CCOCC1)NC2=O (centres unmarked) [K01741a] | 3.3
CCN1CCC2(CC1)NC(=O)c1c(c3ccc(Cl)c(Cl)c3n1C)C2C#N (centres unmarked) [K01786a] | 8.6
Clc1ccc(-c2cnc3ccc(NC4CCOCC4)nn23)cc1 [K00499] | 6.6

biological target: T1, Pim-1 wild type; experiment: as above; conditions: Pim-1 wild type 2 µM, compound 10 µM
Protocol: as §2

ΔTm [K] | Compound
7.7 | CCC(CO)Nc1ccc2ncc(-c3cccc(OC(F)(F)F)c3)n2n1 (centres unmarked) [K00487]
8.2 | CC(C)[C@@H](CO)Nc1ccc2ncc(-c3cccc(C(F)(F)F)c3)n2n1 [K00516]
8.4 | CC(C)[C@@H](CO)Nc1ccc2ncc(-c3cccc(OC(F)(F)F)c3)n2n1 [K00512]
5.6 | CC(=O)c1cccc(-c2cnc3ccc(N[C@H](CO)C(C)C)nn23)c1 [K00518]
6.1 | CC(C)[C@@H](CO)Nc1ccc2ncc(-c3cccc(Cl)c3)n2n1 [K00514]

The next lines start with the compound.

Compound | ΔTm [K]
COCCNc1ccc2ncc(-c3cccc(Cl)c3)n2n1 [K00478] | 6.0
FC(F)(F)Oc1cccc(-c2cnc3ccc(NCC4CC4)nn23)c1 [K00520] | 6.8
Cn1c2c(c3ccc(Cl)c(Cl)c31)C(C#N)C1(CCOCC1)NC2=O (centres unmarked) [K01741a] | 5.1
CCN1CCC2(CC1)NC(=O)c1c(c3ccc(Cl)c(Cl)c3n1C)C2C#N (centres unmarked) [K01786a] | 8.4
Clc1ccc(-c2cnc3ccc(NC4CCOCC4)nn23)cc1 [K00499] | 5.5

biological target: T4, Pim-1 Y53H (Homo sapiens, UniProt P11309, Y53H); experiment: as above; conditions: Pim-1 Y53H 2 µM, compound 10 µM
T4 construct: hexahistidine tag (TEV-cleavable) (cleaved yes); made in house; host or cells: E. coli BL21(DE3)
Protocol: as §2

T4 sequence (P11309 whole entry Y53H): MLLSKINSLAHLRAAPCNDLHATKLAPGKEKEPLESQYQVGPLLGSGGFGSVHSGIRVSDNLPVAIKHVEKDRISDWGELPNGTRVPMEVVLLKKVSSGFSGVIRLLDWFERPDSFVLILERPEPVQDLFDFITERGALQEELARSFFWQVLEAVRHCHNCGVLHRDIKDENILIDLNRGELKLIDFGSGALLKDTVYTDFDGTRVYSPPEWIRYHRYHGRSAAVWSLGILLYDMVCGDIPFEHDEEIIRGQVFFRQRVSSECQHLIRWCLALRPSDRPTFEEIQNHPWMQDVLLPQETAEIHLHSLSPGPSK

ΔTm [K] | Compound
7.0 | CCC(CO)Nc1ccc2ncc(-c3cccc(OC(F)(F)F)c3)n2n1 (centres unmarked) [K00487]
6.9 | CC(C)[C@@H](CO)Nc1ccc2ncc(-c3cccc(C(F)(F)F)c3)n2n1 [K00516]
8.1 | CC(C)[C@@H](CO)Nc1ccc2ncc(-c3cccc(OC(F)(F)F)c3)n2n1 [K00512]
4.6 | CC(=O)c1cccc(-c2cnc3ccc(N[C@H](CO)C(C)C)nn23)c1 [K00518]
5.6 | CC(C)[C@@H](CO)Nc1ccc2ncc(-c3cccc(Cl)c3)n2n1 [K00514]

Further lines, the compound ahead of its results:

Compound | ΔTm [K]
COCCNc1ccc2ncc(-c3cccc(Cl)c3)n2n1 [K00478] | 4.5
FC(F)(F)Oc1cccc(-c2cnc3ccc(NCC4CC4)nn23)c1 [K00520] | 5.5
Cn1c2c(c3ccc(Cl)c(Cl)c31)C(C#N)C1(CCOCC1)NC2=O (centres unmarked) [K01741a] | 3.3
CCN1CCC2(CC1)NC(=O)c1c(c3ccc(Cl)c(Cl)c3n1C)C2C#N (centres unmarked) [K01786a] | 8.2
Clc1ccc(-c2cnc3ccc(NC4CCOCC4)nn23)cc1 [K00499] | 5.9

biological target: T5, Pim-1 E135K (Homo sapiens, UniProt P11309, E135K); experiment: as above; conditions: Pim-1 E135K 2 µM, compound 10 µM
T5 construct: hexahistidine tag (TEV-cleavable) (cleaved yes); made in house; host or cells: E. coli BL21(DE3)
Protocol: as §2

T5 sequence (P11309 whole entry E135K): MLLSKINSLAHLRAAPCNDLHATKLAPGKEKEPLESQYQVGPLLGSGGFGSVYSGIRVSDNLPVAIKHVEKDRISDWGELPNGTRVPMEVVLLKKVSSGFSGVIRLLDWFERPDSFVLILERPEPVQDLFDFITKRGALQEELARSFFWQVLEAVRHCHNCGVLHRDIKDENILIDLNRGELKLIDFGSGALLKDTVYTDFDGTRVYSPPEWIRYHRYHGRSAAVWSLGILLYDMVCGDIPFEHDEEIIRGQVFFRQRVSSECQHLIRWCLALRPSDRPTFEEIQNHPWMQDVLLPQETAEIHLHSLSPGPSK

ΔTm [K] | Compound
7.5 | CCC(CO)Nc1ccc2ncc(-c3cccc(OC(F)(F)F)c3)n2n1 (centres unmarked) [K00487]
9.0 | CC(C)[C@@H](CO)Nc1ccc2ncc(-c3cccc(C(F)(F)F)c3)n2n1 [K00516]
8.9 | CC(C)[C@@H](CO)Nc1ccc2ncc(-c3cccc(OC(F)(F)F)c3)n2n1 [K00512]
6.4 | CC(=O)c1cccc(-c2cnc3ccc(N[C@H](CO)C(C)C)nn23)c1 [K00518]
7.5 | CC(C)[C@@H](CO)Nc1ccc2ncc(-c3cccc(Cl)c3)n2n1 [K00514]

More lines, now with the values behind:

Compound | ΔTm [K]
COCCNc1ccc2ncc(-c3cccc(Cl)c3)n2n1 [K00478] | 5.9
FC(F)(F)Oc1cccc(-c2cnc3ccc(NCC4CC4)nn23)c1 [K00520] | 6.5
Cn1c2c(c3ccc(Cl)c(Cl)c31)C(C#N)C1(CCOCC1)NC2=O (centres unmarked) [K01741a] | 5.2
CCN1CCC2(CC1)NC(=O)c1c(c3ccc(Cl)c(Cl)c3n1C)C2C#N (centres unmarked) [K01786a] | 8.2
Clc1ccc(-c2cnc3ccc(NC4CCOCC4)nn23)cc1 [K00499] | 6.0

biological target: T4, Pim-1 Y53H; experiment: Caliper mobility shift kinase assay; assay type: biochemical; conditions: Y53H relative to Pim-1 wild type
Protocol: as §1

fold increase of IC50 versus wild type [fold] | Compound
1.8 | CCC(CO)Nc1ccc2ncc(-c3cccc(OC(F)(F)F)c3)n2n1 (centres unmarked) [K00487]
